These results are taken from patent US20120101153A1, “ROCAGLAOL DERIVATIVES AS CARDIOPROTECTANT AGENTS AND AS ANTINEOPLASTIC AGENTS” (Universite De Strasbourg, priority 2008, published 2012).

Data set [1] concerns HCT15 (colon adenocarcinoma). In words: MTS assay, inhibition of cell proliferation, HCT15. Format: cell-based. The note with it: Homo sapiens, read-out: Inhibition of cell proliferation (IC50). The source says:
(§1) The medium was changed every 2-3 days.
(Tetrazolium dyes change colour on reduction, which living cells bring about.)

In data set [2] the test system is KB (epidermoid carcinoma). In words: MTS assay, inhibition of cell proliferation, KB. To be noted: Homo sapiens.
Experimental: The human cell lines KB (epidermoid carcinoma) and HepG2 (hepatocarcinoma) were obtained from ECACC (Salisbury, UK) and grown in D-MEM medium supplemented with 10% fetal calf serum, in the presence of penicilline, streptomycine and fungizone in 75 cm^2 flask under 5% CO2.
(§4) Cells were plated in 96-well tissue culture plates in 200 μl medium and cultured during 24 h before to be treated with compounds dissolved in DMSO (compound concentrations at a range of 0.5 nM to 10 μM) using a Biomek 2000 or 3000 (Beckman). Controls received the same volume of DMSO (1% final volume). After a 72 h exposure, MTS reagent (Promega) was added and incubated for 3 h at 37° C. The absorbance was then monitored at 490 nm and results were expressed as the value [1-(OD490 treated/OD490 control)×100] corresponding to the percentage of inhibition of cell proliferation.
For data set [3], the system named is MCF7 (breast adenocarcinoma). In words: MTS assay, inhibition of cell proliferation, MCF7. The note with it: Homo sapiens, read-out: Inhibition of cell proliferation (IC50). It is filed as cell-based.
Text: as §1

The subject of a further data set is HepG2 (hepatocarcinoma). Briefly: MTS assay, inhibition of cell proliferation, HepG2. Format: cell-based. To be noted: Homo sapiens, read-out: Inhibition of cell proliferation (IC50). On the procedure: Experiments were performed in duplicate (n=3).
Data set [4] deals with HCT116 (colon adenocarcinoma). Briefly: MTS assay, inhibition of cell proliferation, HCT116. The note with it: Homo sapiens.
Experimental: (§5) The human cell lines HCT116 (colon adenocarcinoma), PC3 (prostate adenocarcinoma) and HCT15 (colon adenocarcinoma) were obtained from ECACC (Wiltshire, UK).
(§6) The cell lines HCT116, HCT15, MCF7, MDA435, MDA231, PC3, OV3, HL60R and HL60 were grown in RPMI medium, in particular supplemented with 10% fetal calf serum, in the presence of penicillin, streptomycin and fungizone in 75 cm^2 flask under 5% CO2.
as §4
Data set [5] concerns Resistant MCF7 (MCF7R) cells. In words: MTS assay, inhibition of cell proliferation, MCF7R. To be noted: Homo sapiens, 72 h. Format: cell-based.
Text: as §1

Data set [6] relates to HL60 (promyeocytic leukaemia). In words: MTS assay, inhibition of cell proliferation, HL60. To be noted: Homo sapiens.
Experimental: (§7) The human cell lines HL60 (promyeocytic leukaemia), MDA435 (breast ductal carcinoma; ATCC reference HBT129) and MDA231 (breast adenocarcinoma; ATCC reference HBT26) were obtained from ATCC. […] SK-OV3 cells (or OV3, ATCC reference HTB77) were kindly provided by NCI (Frederick, Md.).
(§8) The cell lines HCT116, HCT15, MCF7, MDA435, MDA231, PC3, OV3, HL60R and HL60 were grown in RPMI medium, in particular supplemented with 10% fetal calf serum, in the presence of penicillin, streptomycin and fungizone in 75 cm^2 flask under 5% CO2. […] The medium was changed every 2-3 days.
as §4
Data set [7] has as its system H9c2 cardiomyocytes. On the procedure:
(§2) H9c2 cells were plated for 24 h in 100 mm Petri dishes at 0,7×10^4 cells/cm^2. Next, the cells were washed and cultured for 12 h in glucose-free medium (Gibco, DMEM w-L-glutamine, w/o D-glucose, sodium pyruvate) supplemented with only 1% fetal calf serum. […] Cells were washed, and subsequently FACS analyses were performed.
(§3) Apoptosis was analysed by fluorescence-activated cell sorting analysis (FACS-Calibur, Becton-Dickinson Biosciences). 0,5×10^6 cells were harvested, washed with Annexin Binding Buffer (0,01 M HEPES, 0,14 M NaCl, 2,5 mM CaCl2) and labeled with annexin V (dilution 1:50) and propidium iodide (6,7 μg/ml). All assays were performed at least in triplicate, and the results were analyzed by BD Cell Quest Pro software (Becton-Dickinson Biosciences, Le Pont De Claix, France).

In data set [8] the test system is H9c2 cardiomyocytes. On the procedure:
as §1, §2, §3
This is another data set of the same source.

Another data set deals with mice. Briefly: In vivo cardioprotection against doxorubicin in mice. On the procedure: Administration of FL3 (0.1 mg/kg i.p., 2×/day for 4 days) protected mice from the cardiotoxicity induced by doxorubicine (20 mg/kg i.p.): they observed a 70% survival rate for the mice that received FL3. The survival rate for the mouse who received the vehicle was only 30% (see Table 3).

Data set [9] relates to HL60R (resistant HL60 cells). Briefly: MTS assay, cytotoxicity, HL60R. To be noted: Homo sapiens, read-out: Cytotoxicity (IC50).
Experimental: as §6, §4
The next data set has as its system SK-OV3 cells (OV3). In words: MTS assay, cytotoxicity, OV3. The note with it: Homo sapiens, SK-OV-3, read-out: Cytotoxicity (IC50).
In data set [10] the test system is MDA231 (breast adenocarcinoma). In words: MTS assay, cytotoxicity, MDA231. The note with it: Homo sapiens, MDA-MB-231, read-out: Cytotoxicity (IC50).
Experimental: as §7, §8, §4
The subject of data set [11] is MDA435 (breast ductal carcinoma). In words: MTS assay, cytotoxicity, MDA435. The note with it: Homo sapiens, MDA435, read-out: Cytotoxicity (IC50).
Experimental: as §7, §8, §4
For data set [12], the system named is PC3 (prostate adenocarcinoma). In words: MTS assay, cytotoxicity, PC3. The note with it: Homo sapiens, read-out: Cytotoxicity (IC50).
Experimental: as §5, §6, §4
The conditions of data set [13]: cumulative dose of doxorubicin 700 mg/m^2; cited from earlier work.
[14] abbreviates: HCT-15, HCT15, MTS, 72 h, Table 1.
[15] abbreviates: 72 h, read-out: Inhibition of cell proliferation (IC50).
The mark [16] stands for this setting: HCT-116, 72 h, read-out: Inhibition of cell proliferation (IC50).
Setting [17] is: MTS, Table 1, read-out: Inhibition of cell proliferation (IC50).
Where [18] appears, read: HL-60, 72 h, read-out: Inhibition of cell proliferation (IC50).
[19] abbreviates: HCT-116, read-out: Cytotoxicity (IC50).
[20] abbreviates: HL-60, read-out: Cytotoxicity (IC50).

Where two headings read alike, the source gives them in different places. Where only a bound is given, the exact number is not on record here.

Experimental for SK-OV3 cells (OV3): as §7, §8, §4

Consider `COc1ccc([C@@]23Oc4cc(OC)cc(OC)c4[C@]2(O)[C@H](O)C[C@H]3c2ccccc2)cc1` (racemic) [FL1, rocaglaol], for which the IC50 in data set [1] (setting [14]) was determined as 6 nM; in data set [2] (setting [15]) it was 2 nM; in data set [3] (MCF7, MTS, 72 h, Table 1), 4 nM; in the data set on HepG2 (hepatocarcinoma) (HepG2, MTS, 72 h, Table 1), 70 nM; in data set [4] (setting [16]) it was 6 nM; in data set [5] (setting [17]), 4 nM. Besides, the IC50 in data set [6] (setting [18]) was 3 nM.

For the molecule `COc1cc(OC)c2c(c1)O[C@@]1(c3ccc(Br)cc3)[C@H](c3ccccc3)C[C@@H](O)[C@@]21O` (racemic) [FL3, bromo-demethoxy-rocaglaol], in the data set on H9c2 cardiomyocytes [7] (co-treatment FL3 100 nM with KRIBB3 1 μM), the “Effect on KRIBB3-induced cytotoxicity” value is “significantly alleviated”. Moreover, in the data set on H9c2 cardiomyocytes [7] (doxorubicin, KRIBB3 and FL3 all together), the “Effect on KRIBB3 worsening of doxorubicin cytotoxicity” value is “reversed”. Besides, the IC50 in data set [1] (HCT-15, 72 h) was 1 nM; in [9], 4.5 nM; in the data set on SK-OV3 cells (OV3), 8.5 nM; in data set [10], 3.8 nM; in data set [2] (setting [15]), less than 1 nM; in data set [2] (read-out: Cytotoxicity (IC50)), 15 nM. Also, the IC50 in data set [3] (MCF7, 72 h) was 1 nM; in data set [11], 8.7 nM; in the data set with HepG2 (hepatocarcinoma) (HepG2, 72 h), 4 nM; in data set [4] (setting [16]), less than 1 nM; in [4] (setting [19]), 7.6 nM; in data set [12] it was 17 nM. In addition, the values for the IC50 in data set [5] (read-out: Inhibition of cell proliferation (IC50)), in data set [6] (setting [18]) and in data set [6] (setting [20]) were less than 1 nM, less than 1 nM and 5.5 nM, respectively. Also, the “Diminution of the apoptosis induced by doxorubicin” value with H9c2 cardiomyocytes [8] (1 nM FL3, 1 μM doxorubicin, H9c2) came to 70%. For the same molecule, the “Alleviation of the apoptosis induced by doxorubicin” value in the data set with H9c2 cardiomyocytes [8] (50 nM FL3, 20 times superior concentration of doxorubicin, H9c2) came to 61%. Further, the “Concentration of maximum inhibition of doxorubicin-induced apoptosis” value in the data set with H9c2 cardiomyocytes [8] (H9c2, FIG. 8B) was 1 nM. For the same molecule, the Survival rate with mice (Doxorubicin (1 x, 20 mg/kg i.p.) + FL3 (8 x, 0.1 mg/kg i.p.)) amounted to 70%; with mice (FL3 alone (8 x, 0.1 mg/kg i.p.)) it was 100%.

For the molecule `COC(=O)[C@H]1[C@@H](O)[C@@]2(O)c3ccc(OCCCO)cc3O[C@@]2(c2ccc(OC)cc2)[C@@H]1c1ccccc1` (racemic) [FL11], in the data set with H9c2 cardiomyocytes [8] (10 or 100 nM, apoptosis induced by doxorubicin in H9c2 cells), the “Activity for cytotoxicity and cardioprotection (FIG. 13)” value is reported as “no or weak such activity”. Moreover, the IC50 in [9] was 1280 nM; with SK-OV3 cells (OV3), 1460 nM; in data set [10], 1070 nM; in data set [2] (read-out: Cytotoxicity (IC50)), 1710 nM; in [11] it was 1110 nM; in data set [4] (setting [19]) it was 1420 nM. Also, the IC50 is 2520 nM in data set [12] and 1120 nM in data set [6] (setting [20]).

As for `COc1cccc2c1C(=O)c1c(O)c3c(c(O)c1C2=O)C[C@@](O)(C(=O)CO)C[C@@H]3O[C@H]1C[C@H](N)[C@H](O)[C@H](C)O1` [Doxorubicin, doxorubicin, reference compound], the IC50 in data set [1] (setting [14]) stood at 81 nM; in the data set on SK-OV3 cells (OV3) it was 41 nM; in data set [10] it was 0.047 nM; in data set [2] (setting [15]) it was 1 nM; in data set [3] (MCF7, MTS, 72 h, Table 1) it was 12 nM; in data set [11] it was 3.5 nM. Besides, the IC50 in the data set on HepG2 (hepatocarcinoma) (HepG2, MTS, 72 h, Table 1) was 240 nM; in [4] (setting [16]), 6 nM; in data set [12], 186 nM; in data set [5] (setting [17]), 58 nM; in data set [6] (setting [18]), 13 nM; in data set [6] (setting [20]) it was 30 nM. Moreover, the “Apoptosis induced (total apoptotic cells)” value with H9c2 cardiomyocytes [8] (1 μM doxorubicin for 14 h, H9c2) was determined as 32%. Also, the Survival rate in the data set on mice (Doxorubicin alone (1 x, 20 mg/kg i.p.)) is given as 30%. For the same molecule, in data set [13], the “Risk of developing congestive heart failure” value is 48%.

Regarding `COc1ccc([C@@H]2C[C@@H](O)[C@@]3(O)c4c(OC)cc(OC)cc4O[C@@]23c2ccccc2)cc1` [FL4], the IC50 in [1] (setting [14]) was more than 10000 nM; in data set [2] (setting [15]), more than 10000 nM; in [3] (MCF7, MTS, 72 h, Table 1), more than 10000 nM; in the data set with HepG2 (hepatocarcinoma) (HepG2, MTS, 72 h, Table 1), more than 10000 nM; in data set [4] (setting [16]), more than 10000 nM; in data set [5] (setting [17]), more than 10000 nM. In addition, in [6] (setting [18]), the IC50 is more than 10000 nM.

Regarding `CCc1cc(-c2oncc2-c2ccc(OC)cc2)c(O)cc1OC` [KRIBB3, reference compound], in the data set on H9c2 cardiomyocytes [7] (KRIBB3 1 μM, 1 h), the “Cytotoxicity of KRIBB3 on cardiomyocytes” value is on record as “induced a cytotoxicity”.
